US20260258084A1, “New Peptides as Selective IL-23 Receptor Antagonists” (Sanofi, priority 2022, published 2026)
Converted amounts (≈) assume the structure as drawn. Read-outs that look alike come from different tables or passages of the source. Starred links: 1 amine or outer side, 2 acyl side, 3 side chain; linkers in the order of their positions; H or OH if unused. Positions of bridges follow the written chain, without caps; N, C: chain ends. Non-standard residues stand in square brackets, D forms with d. Residues, ends and D or L forms follow the SMILES beside them. *: point of attachment. Trp(7-Me) = Cc1cccc2c(C[C@H](N)C(=O)O)c[nH]c12; X1 = O=C(CCCCN[*:3])N[C@@H](CS[*:2])C(=O)[*:1]; αMeLys(Me2) = CN(C)CCCC[C@](C)(N)C(=O)O; X2 = CN(C)[C@@H](CCCCN[*:1])C(=O)[*:2]; 2Nal = N[C@@H](Cc1ccc2ccccc2c1)C(=O)O; NMe5Ava = CN(CCCCC(=O)[*:2])[*:1]; 3Pal = N[C@@H](Cc1cccnc1)C(=O)O; αMeL = CC(C)C[C@](C)(N)C(=O)O; Me2NCH2CH2 = CN(C)CC*; Ava = NCCCCC(=O)O; Sar = CNCC(=O)O

Assays:
[1] = test system: IL-23 induced STAT3 signaling in HEK-Blue™ IL-23 cells; assay: IL-23 induced STAT3 signaling in HEK-Blue IL-23 cells (SEAP reporter); assay type: cell-based; details: human IL23 0.25 ng/ml, read-out: pSTAT3
Source text: HEK-Blue™ IL-23 cells (Invivogen) are designed for the detection of bioactive human (hIL-23) and murine IL-23 (mIL-23) by monitoring the activation of the STAT3 pathway. Binding of IL-23 to its receptor on the surface of HEK-Blue™ IL-23 cells triggers a signalling cascade leading to the activation of STAT3 and the subsequent production of secreted embryonic alkaline phosphatase (SEAP). This can be readily assessed using QUANTI-Blue™ Solution, a SEAP detection reagent.
HEK-Blue™ IL-23 cells were cultured as described by Invivogen.
On the first day of assay 10 μL of the HEK-Blue IL23 cell suspension (final concentration: 10,000 cells/well) and 10 μl of serially diluted peptides solutions were dispensed into a 384-well assay plate. After pre-incubation of the reaction mixtures at 37° C./5% CO2/95% humidity for 60 minutes, 10 μl of the human IL23 cytokine (final concentration: 0.25 ng/ml) was added to each well for the STAT3 signalling activation. The plate was incubated overnight at 37° C./5% CO2/95% humidity.
On the second day 20 μl per well of Quanti-Blue detection solution (prepared according to the manufacture instruction) was dispensed into a new 384-well plate and followed by the transfer of 5 μl supernatant of the overnight incubated cell/sample mixtures. After incubation of 45 min at room temperature signals were measured with PHERAstar (BMG) at OD 620-655 nm. Dose response data were fitted with XLfit.

[2] = Solubility testing of peptides at different pH; assay type: physicochemical; details: target concentration 1 mg/ml, 2 hours agitation
Experimental: Prior to the solubility measurement of a synthesized peptide batch, its purity was determined through UPLC/MS (methods B-G).
For solubility testing the target concentration was 1 mg pure compound/ml. Therefore, solutions from solid samples were prepared in a buffer system at a concentration of 1 mg/mL compound. The solid samples were obtained by drying down aliquots of a dimethyl sulfoxide stock solution using a Thermo Speedvac vacuum centrifuge. The dry down time was 3 hours. • Solubility buffer system A) 50 mM HCl pH 1.2 • Solubility buffer system B) 50 mM phosphate buffer pH 6.5 • Solubility buffer system C) 50 mM phosphate buffer pH 7.4 • Solubility buffer system D) 50 mM phosphate buffer pH 9.0
UPLC-UV (Method A) was performed after 2 hours of gentle agitation from the filtered (0.45 μm filter plates) solutions, which was obtained by 10 mins of centrifugation forced filtration at 1500 RCF (relative centrifugal acceleration).
The solubility was determined by the comparison of the UV peak area of 2 μL-injections of a buffered sample diluted 1:5 with a standard curve of a dimethyl sulfoxide reference sample of the diluted in dimethyl sulfoxide with known concentration. The different extinction coefficients were taken into account for the calculation.

[3] = Chemical stability assessment of peptides (relative purity loss); assay type: physicochemical; details: 24 hours at 37° C.; for Chemical stability (relative purity loss) Buffer pH 1.2: 50 mM HCl pH 1.2 + acetonitrile (1:1); for Chemical stability (relative purity loss) Buffer pH 6.5: 50 mM phosphate buffer pH 6.5 + acetonitrile (1:1); for Chemical stability (relative purity loss) Buffer pH 7.4: 50 mM phosphate buffer pH 7.4 + acetonitrile (1:1)
Experimental: Purity of a peptide batch was determined through UPLC/MS (Methods B-G) prior to chemical stability measurement. The target concentration was 1 mg/ml pure compound. Solutions from solid samples were prepared in the following buffer systems with a concentration of 1 mg/ml compound based on the previously determined % purity: • Solubility buffer system A) 50 mM HCl pH 1.2+Acetonitrile (1:1) • Solubility buffer system B) 50 mM phosphate buffer pH 6.5+Acetonitrile (1:1) • Solubility buffer system C) 50 mM phosphate buffer pH 7.4+Acetonitrile (1:1)
Prepared solutions were stored for 24 hours at 2° C. and 37° C. After this time course, the samples were centrifuged for 15 min at 2500 RCF to create a 1:5 dilution of the supernatant. Then 2 μl of the dilution were analysed with UHPLC-UV.
The chemical stability was rated through the relative loss of purity calculated by the equation:
[(purity after 0 hours at 37° C.)−(purity after 24 hours at 37° C.)]/(purity after 0 hours at 37° C.)]*100%
The purity is calculated as [(peak area peptide)/(total peak area)]*100%.

Pepsin = test system: T1, Pepsin; assay: Protease stability in simulated gastric fluid (Pepsin-SGF, FaSSGF); assay type: in vitro ADME; details: simulated gastric fluid with pepsin (Pepsin-SGF), 60 min, 1 μM peptide, 37° C., read-out: FaSSGF 60 (min), remaining percent of peptide
T1 construct: purchased Merck Millipore
Experimental: (§1) Studies were carried out in simulated intestinal fluid (SIF) and simulated gastric fluid (SGF) to evaluate gastric stability of the peptide compounds disclosed herein.
For clarification the term “Pepsin-SGF” refers to a solution of simulated gastric fluid containing pepsin whereas “SGF media” refers to a solution of simulated gastric fluid without pepsin. Pepsin-SGF was prepared by dissolving 320 mg Pepsin (Merck Millipore) in 100 mL SGF media concentrate (ProSense).
(§2) Peptides were first dissolved at 1 mM stock concentration in 0.01 HCl (+/−10% of DMSO) and were than diluted further with water to a stock concentration of 20 μM. Final peptide concentration in the incubation was 1 μM.
(§3) To 76 μL of the Pepsin-SGF buffer, 4 μL of the 20 μM peptide stock solution was added and incubated at 37° C. At each timepoint (0, 60, 120 and 240 minutes) the reaction was quenched with addition of 80 μL Ethanol (0.1% HCOOH). The samples were centrifuged for 20 minutes and an aliquot of the supernatant 100 μL were transferred to a LoBind-MTP plate and analyzed by LCMS/MS. The peak area response was calculated at each time point for each test compound. As internal reference, the peak area response of the same test compound at TO was calculated. The percent remaining at each timepoint was calculated based on the peak area response ratio of the test compound at TO. Time 0 was set to 100%, and all later timepoints were calculated relative to time 0.

Pancreatin = assay: Protease stability in simulated intestinal fluid (Pancreatin-SIF, FaSSIF); assay type: in vitro ADME; details: 1 μM peptide, 37° C.; for remaining at 1 h, 1 µM: 60 min, read-out: FaSSIF 60 (min), remaining percent of peptide; for remaining at 2 h, 1 µM: 120 min, read-out: FaSSIF 120 (min), remaining percent of peptide; for remaining at 4 h, 1 µM: 240 min, read-out: FaSSIF 240 (min), remaining percent of peptide
Experimental: as §1
Similarly, the term “Pancreatin-SIF” refers to a solution of simulated intestinal fluid containing pancreatin whereas “SIF-media” refers to a solution of simulated intestinal fluid without pancreatin.
Pancreatin-SIF was prepared by dissolving 1 mg Pancreatin (MP Biomedicals) in 10 mL SIF media concentrate (ProSense).
as §2
as §3, with “µM” for “μM”

[4] = molecular target: T2, human interleukin-23 receptor (recombinant human IL-23R-Fc chimera) (Homo sapiens, UniProt Q5VWK5); assay: Human ELISA IL23/IL23R (assay for specific human IL23R antagonists); assay type: binding; details: Table 10; read-out: Human ELISA IL23/IL23R IC50
T2 construct: Fc (IgG Fc fusion)
Experimental: Antagonism of compounds for human interleukin-23 receptor antagonists, was determined by an ELISA assay.
A 384-well plate was coated with 50 μl/well of human IL23 at a final concentration of […] and incubated overnight at 4° C. The wells were washed 3 times with 80 μl wash buffer and blocked with 80 μl blocking buffer for 60 minutes at room temperature and washed again. 20 μl of serially diluted test peptides was added to each well and subsequently 20 μl of recombinant human IL-23R-Fc chimera at final concentration of 0.1 μg/ml. The plate was incubated for 60 minutes at room temperature. After the wells were washed, bound IL23R-Fc was detected with goat anti-hu-IgG1-HRP antibody. Signals were visualized with QuantaBlu Fluorogenic Peroxidase Substrate.

[5] = 50 mM HCl buffer, 50 mM HCl pH 1.2, read-out: Solubility Buffer pH 1.2
[6] = 50 mM phosphate buffer pH 6.5, read-out: Solubility Buffer pH 6.5
[7] = 50 mM phosphate buffer pH 7.4, read-out: Solubility Buffer pH 7.4
[8] = 50 mM phosphate buffer pH 9.0, read-out: Solubility Buffer pH 9.0

Row | SMILES | IC50 [1] | solubility at 2 h [2, 5] | solubility at 2 h [2, 6] | solubility at 2 h [2, 7] | solubility at 2 h [2, 8] | Chemical stability (relative purity loss) Buffer pH 1.2 [3] | Chemical stability (relative purity loss) Buffer pH 6.5 [3] | Chemical stability (relative purity loss) Buffer pH 7.4 [3] | remaining at 1 h, 1 µM (Pepsin) | remaining at 1 h, 1 µM (Pancreatin) | remaining at 2 h, 1 µM (Pancreatin) | remaining at 4 h, 1 µM (Pancreatin) | IC50 [4]
1 | CC(=O)NCCCC[C@@H]1NC(=O)[C@H](Cc2c[nH]c3c(C)cccc23)NC(=O)[C@H]([C@@H](C)O)NC(=O)[C@H](CC(N)=O)NC(=O)[C@@H]2CSSC[C@H](NC1=O)C(=O)N[C@@H](Cc1ccc(OCCN(C)C)cc1)C(=O)N[C@H](Cc1ccc3ccccc3c1)C(=O)NC1(CCOCC1)C(=O)N[C@H](C(=O)N[C@@H](CC(N)=O)C(=O)N[C@@H](Cc1cccnc1)C(=O)N(C)CC(N)=O)CCC(=O)NCCCCC(=O)N2 [compound 35] | 340 pM | ≥ 1070 µg/mL | ≥ 1030 µg/mL | ≥ 1060 µg/mL | ≥ 1140 µg/mL | 10.1% | 1.3% | 1.7% | 92% | 91% | 92% | 92% | 
2 | CC(=O)NCCCC[C@@H]1NC(=O)[C@H](Cc2c[nH]c3c(C)cccc23)NC(=O)[C@H]([C@@H](C)O)NC(=O)[C@H](CC(N)=O)NC(=O)[C@@H]2CSSC[C@H](NC1=O)C(=O)N[C@@H](Cc1ccc(OCCN(C)C)cc1)C(=O)N[C@@H](Cc1ccc3ccccc3c1)C(=O)N[C@@](C)(CC(C)C)C(=O)N[C@H](C(=O)N[C@@H](CC(N)=O)C(=O)N[C@@H](Cc1cccnc1)C(=O)N(C)CC(N)=O)CCC(=O)NCCCCC(=O)N2 [compound 65] ([Ava]CNT[Trp(7-Me)]K(Ac)CY(Me2NCH2CH2)[2Nal][αMeL]EN[3Pal][Sar]-NH2; disulfide 2-7; lactam N-11) | 230 pM | ≥ 980 µg/mL | ≥ 910 µg/mL | ≥ 960 µg/mL |  |  |  |  | 86% | 96% | 96% | 92% | 
3 | CC(=O)N[C@H]1CCCCNC(=O)[C@@H]2CSSC[C@H](NC(=O)[C@H](CCC(N)=O)NC(=O)[C@H](Cc3c[nH]c4ccccc34)NC1=O)C(=O)N[C@@H](Cc1ccc(OCCN(C)C)cc1)C(=O)N[C@@H](Cc1ccc3ccccc3c1)C(=O)N[C@@](C)(CC(C)C)C(=O)N[C@H](C(=O)N[C@@H](CC(N)=O)C(=O)N[C@@H](CC(N)=O)C(N)=O)CCC(=O)NCCCCC(=O)N2 [compound 28] (Ac-KWQCY(Me2NCH2CH2)[2Nal][αMeL]ENN-NH2; linker 1-4-8 via X1) | 4110 pM |  |  |  |  |  |  |  | 83% | 80% | 68% | 65% | 
4 | CC(=O)NCCCC[C@@H]1NC(=O)[C@H](Cc2c[nH]c3c(C)cccc23)NC(=O)[C@@H](N(C)C)CCCCNC(=O)[C@@H]2CSSC[C@H](NC1=O)C(=O)N[C@@H](Cc1ccc(OCCN(C)C)cc1)C(=O)N[C@@H](Cc1ccc3ccccc3c1)C(=O)N[C@@](C)(CCCCN(C)C)C(=O)N[C@H](C(=O)N[C@@H](CC(N)=O)C(=O)N[C@@H](Cc1cccnc1)C(=O)N(C)CC(N)=O)CCC(=O)N(C)CCCCC(=O)N2 [compound 61] ([NMe5Ava]C[X2][Trp(7-Me)]K(Ac)CY(Me2NCH2CH2)[2Nal][αMeLys(Me2)]EN[3Pal][Sar]-NH2; disulfide 2-6; lactam N-10) | 4400 pM |  |  |  |  |  |  |  | 96% | 90% | 74% | 62% | 
5 | CC(=O)NCCCC[C@@H]1NC(=O)[C@H](Cc2c[nH]c3c(C)cccc23)NC(=O)[C@@H](NC(C)=O)CCCCNC(=O)[C@@H]2CSSC[C@H](NC1=O)C(=O)N[C@@H](Cc1ccc(OCCN(C)C)cc1)C(=O)N[C@@H](Cc1ccc3ccccc3c1)C(=O)NC1(CCOCC1)C(=O)N[C@H](C(=O)N[C@@H](CC(N)=O)C(=O)N[C@@H](Cc1cccnc1)C(=O)N(C)CC(N)=O)CCCCN(C)CCCCN2C [compound 127] |  | ≥ 1520 µg/mL | ≥ 1130 µg/mL | ≥ 1120 µg/mL | 620 µg/mL (≈ 333 µM) | 6.0% | 9.0% | 11.0% | 100% | 99% | 101% | 97% | 530 pM
